# Experimental data reported in patent US20220363719A1, “Reverse Amide-Linked Melanocortin Receptor-Specific Cyclic Peptides” (Palatin Technologies, Inc., priority 2020, published 2022).
# Where a SMILES comes first, the peptide text is derived from it. Bridges are numbered along the chain shown (N, C = ends). [ ]: non-standard residue; d: D form. The star is where a group is joined. ξ: configuration not given here. d1Nal = N[C@H](Cc1cccc2ccccc12)C(=O)O; Nle = CCCC[C@H](N)C(=O)O; Orn = NCCC[C@H](N)C(=O)O; Dab = NCC[C@H](N)C(=O)O; ξHyp = O=C(O)C1CC(O)CN1; Dap = NC[C@H](N)C(=O)O; Hexanoyl = CCCCCC(=O)*; Ahx = NCCCCCC(=O)O; Bn = c1ccc(C*)cc1; GABA = NCCCC(=O)O; βAla = NCCC(=O)O
# Columns and labels:
# Format in all cases: cell-based
# hMC5r = biological target: T1, hMC5r (Homo sapiens, UniProt P33032); test: cAMP agonist activity assay performed at CEREP (HTRF), MC5; conditions: determined by CEREP, CHO-K1 cells; for EC50: cAMP HTRF; for Emax: control Alpha-MSH, read-out: Emax percent hMC5r* (percent of the maximal response obtained with the positive control)
# T1 construct: Eurofins CEREP SA
# T1 sequence (P33032 whole entry): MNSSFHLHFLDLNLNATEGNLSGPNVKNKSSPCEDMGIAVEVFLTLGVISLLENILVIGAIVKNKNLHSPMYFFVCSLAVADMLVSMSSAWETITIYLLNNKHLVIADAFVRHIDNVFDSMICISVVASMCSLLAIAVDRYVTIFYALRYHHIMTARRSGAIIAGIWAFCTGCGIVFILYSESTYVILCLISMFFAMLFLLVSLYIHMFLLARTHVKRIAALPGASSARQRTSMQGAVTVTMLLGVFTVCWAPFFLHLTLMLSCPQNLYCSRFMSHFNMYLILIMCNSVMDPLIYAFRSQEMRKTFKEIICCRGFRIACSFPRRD
# Method: (§1) Evaluation of the agonist activity of compounds at the melanocortin receptors was determined by measuring their effects on cAMP production using the HTRF detection method at CEREP (Eurofins CEREP SA, Celle-Lévescault, France). The cells were suspended in HBSS buffer (Invitrogen) complemented with 20 mM HEPES (pH 7.4) and 500 μM IBMX, then distributed in microplates and incubated in the presence of HBSS (basal control), the test compound or the reference agonist. Incubation time, temperature, cell number, reference agonist and cell line information are included in the Table 1 below. For stimulated control measurement, separate assay wells contain reference compound. Following incubation, the cells are lysed and the fluorescence acceptor (D2-labeled cAMP) and fluorescence donor (anti-cAMP antibody labeled with europium cryptate) were added. After 60 minutes at room temperature, the fluorescence transfer was measured at excitation wavelength 337 nm and emission wavelengths 620 and 665 nm using a microplate reader (Envision, Perkin Elmer). The cAMP concentration was determined by dividing the signal measured at 665 nm by that measured at 620 nm (ratio).
# (§2) The results are expressed as a percent of the control response to 1 μM of the reference. The standard reference agonist is tested in each experiment at several concentrations to generate a concentration-response curve from which its EC50 value is calculated.
# hMC3r = hMC3r (Homo sapiens, UniProt P41968); test: Alternative assay for agonist activity (intracellular cAMP), HEK-293 cells, recombinant MC3r; design: expressed in transfected cells; host or cells: HEK-293; conditions: for Emax: HEK293, not CEREP, reference NDP-α-MSH, read-out: Emax percent hMC3r (percent of the maximal response obtained with the positive control); for EC50: not CEREP, cAMP HTRF
# hMC3r, sequence (P41968 whole entry): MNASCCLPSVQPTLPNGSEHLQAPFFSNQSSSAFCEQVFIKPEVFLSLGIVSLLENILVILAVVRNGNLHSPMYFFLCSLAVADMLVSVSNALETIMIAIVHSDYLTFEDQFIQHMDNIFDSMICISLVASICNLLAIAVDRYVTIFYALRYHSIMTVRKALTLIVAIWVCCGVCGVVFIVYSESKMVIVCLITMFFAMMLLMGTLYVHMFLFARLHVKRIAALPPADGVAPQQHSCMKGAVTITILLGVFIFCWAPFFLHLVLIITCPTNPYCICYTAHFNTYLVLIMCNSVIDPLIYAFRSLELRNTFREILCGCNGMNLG
# Method: (§3) Accumulation of intracellular cAMP was examined as a measure of the ability of the peptides to elicit a functional response in either HEK-293 cells that express recombinant MC3r or MC4r or B16-F10 (mouse) and HBL (human) cell lines that express native MC1 r. Confluent cells were detached from culture plates by incubation in enzyme-free cell dissociation buffer. Dispersed cells were suspended in Hank's Balanced Salt Solution containing 10 mM HEPES (pH 7.5), 1 mM MgCl2, 1 mM glutamine, 0.5% albumin and 0.3 mM 3-isobutyl-1-methyl-xanthine (IBMX), a phosphodiesterase inhibitor. The cells were dispensed into 96-well plates at a density of 0.5×10^5 cells per well and pre-incubated for 10 minutes. Cells were exposed for 15 minutes at 37° C. to peptides dissolved in DMSO (final DMSO concentration of 1%) at a concentration range of 0.05-5000 nM in a total assay volume of 200 μL. NDP-α-MSH was used as the reference agonist. cAMP levels were determined by an HTRF® cAMP cell-based assay system from Cisbio Bioassays utilizing cryptate-labeled anti-cAMP and D2-labeled cAMP, with plates read on a Perkin-Elmer Victor plate reader at […]. Data analysis was performed by nonlinear regression analysis with Graph-Pad Prism® software. The maximum efficacies of the test peptides were compared to that achieved by the reference melanocortin agonist NDP-α-MSH.
# hMC4r = hMC4r (Homo sapiens, UniProt P32245); test: Alternative assay for agonist activity (intracellular cAMP), HEK-293 cells, recombinant MC4r; design: expressed in transfected cells; host or cells: HEK-293; conditions: for Emax: HEK293, not CEREP, reference NDP-α-MSH, read-out: Emax percent hMC4r (percent of the maximal response obtained with the positive control); for EC50: not CEREP, cAMP HTRF
# hMC4r, sequence (P32245 whole entry): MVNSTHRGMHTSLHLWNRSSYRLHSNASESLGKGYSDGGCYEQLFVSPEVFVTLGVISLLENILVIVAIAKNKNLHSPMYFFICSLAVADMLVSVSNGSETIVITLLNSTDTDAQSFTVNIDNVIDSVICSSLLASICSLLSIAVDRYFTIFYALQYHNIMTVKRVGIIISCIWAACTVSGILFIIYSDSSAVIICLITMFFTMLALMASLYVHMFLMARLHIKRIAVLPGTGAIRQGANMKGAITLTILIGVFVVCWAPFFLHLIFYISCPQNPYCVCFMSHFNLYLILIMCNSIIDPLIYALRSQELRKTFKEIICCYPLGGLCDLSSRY
# Method: as §3
# mMC1r [1] = biological target: T2, mMC1r (Mus musculus, UniProt Q01727); test: Alternative assay for agonist activity (intracellular cAMP), B16-F10 cells, native MC1r; design: B16-F10 (mouse) and HBL (human) cell lines that express native MC1 r; endogenous in cells; host or cells: B16-F10 mouse melanoma cells; conditions: not CEREP; for EC50: cAMP HTRF; for Emax: reference NDP-α-MSH, read-out: Emax percent mMC1r (percent of the maximal response obtained with the positive control)
# T2 sequence (Q01727 whole entry): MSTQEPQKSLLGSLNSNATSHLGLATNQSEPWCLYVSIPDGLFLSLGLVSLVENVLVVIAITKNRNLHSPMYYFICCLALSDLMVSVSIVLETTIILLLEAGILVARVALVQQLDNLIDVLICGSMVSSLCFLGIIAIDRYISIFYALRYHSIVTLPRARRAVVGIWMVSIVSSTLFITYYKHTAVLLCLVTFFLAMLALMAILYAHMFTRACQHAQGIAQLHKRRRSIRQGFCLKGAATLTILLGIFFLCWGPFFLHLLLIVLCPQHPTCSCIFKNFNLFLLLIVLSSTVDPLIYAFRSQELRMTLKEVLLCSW
# Method: as §3
# mMC1r [2] = biological target: T2, mMC1r; test: cAMP agonist activity assay performed at CEREP (HTRF), MC1; conditions: determined by CEREP, B16-F1 cells; for EC50: cAMP HTRF; for Emax: control NDP-alpha-MSH, read-out: Emax percent mMC1r* (percent of the maximal response obtained with the positive control)
# Method: as §1, §2
# hMC1r = biological target: T3, hMC1r (Homo sapiens, UniProt Q01726); test: Alternative assay for agonist activity (intracellular cAMP), HBL cells, native MC1r; conditions: not CEREP; for EC50: cAMP HTRF; for Emax: reference NDP-α-MSH, read-out: Emax percent hMC1r (percent of the maximal response obtained with the positive control)
# T3 construct: B16-F10 (mouse) and HBL (human) cell lines that express native MC1 r; endogenous in cells; host or cells: HBL human melanoma cells
# T3 sequence (Q01726 whole entry): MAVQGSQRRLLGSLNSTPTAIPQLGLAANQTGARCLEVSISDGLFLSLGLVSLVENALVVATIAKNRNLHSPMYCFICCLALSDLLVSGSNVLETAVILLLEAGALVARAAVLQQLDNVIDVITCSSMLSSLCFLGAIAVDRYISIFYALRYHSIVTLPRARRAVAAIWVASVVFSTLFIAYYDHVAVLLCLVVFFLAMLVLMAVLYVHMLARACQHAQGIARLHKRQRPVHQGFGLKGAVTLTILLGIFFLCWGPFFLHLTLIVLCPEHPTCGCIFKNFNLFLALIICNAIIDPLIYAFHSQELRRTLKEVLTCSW
# Method: as §3
Compound,EC50 (hMC5r),Emax (hMC5r),Emax (hMC3r),EC50 (hMC3r),Emax (hMC4r),EC50 (hMC4r),EC50 (mMC1r [1]),Emax (mMC1r [1]),EC50 (mMC1r [2]),Emax (mMC1r [2]),EC50 (hMC1r),Emax (hMC1r)
CCCC[C@H](NC(C)=O)C(=O)N[C@H]1CCCCNC(=O)CCNC(=O)[C@H](Cc2c[nH]c3ccccc23)NC(=O)[C@H](CCCNC(=N)N)NC(=O)[C@@H](Cc2cccc3ccccc23)NC(=O)C2CC(OCc3ccccc3)CN2C1=O (stereo partly shown) [Peptide 2] (Ac-[Nle]K[ξHyp](Bn)[d1Nal]RW[βAla]; lactam 2-C),0.23 nM,96%,14%,> 10000 nM,33%,5 nM,2 nM,61%,,,,
CCCC[C@H](NC(C)=O)C(=O)N[C@H]1CCCNC(=O)CCNC(=O)[C@H](Cc2c[nH]c3ccccc23)NC(=O)[C@H](CCCNC(=N)N)NC(=O)[C@@H](Cc2cccc3ccccc23)NC(=O)C2CC(OCc3ccccc3)CN2C1=O (stereo partly shown) [Peptide 3] (Ac-[Nle][Orn][ξHyp](Bn)[d1Nal]RW[βAla]; lactam 2-C),0.2 nM,93%,12%,> 10000 nM,31%,5 nM,2 nM,67%,,,,
CCCC[C@H](NC(C)=O)C(=O)N[C@H]1CCCNC(=O)CNC(=O)[C@H](Cc2c[nH]c3ccccc23)NC(=O)[C@H](CCCNC(=N)N)NC(=O)[C@@H](Cc2cccc3ccccc23)NC(=O)C2CC(OCc3ccccc3)CN2C1=O (stereo partly shown) [Peptide 4] (Ac-[Nle][Orn][ξHyp](Bn)[d1Nal]RWG; lactam 2-C),10 nM,118%,10%,> 10000 nM,38%,15 nM,26 nM,67%,,,,
CCCC[C@H](NC(C)=O)C(=O)N[C@H]1CCNC(=O)CCNC(=O)[C@H](Cc2c[nH]c3ccccc23)NC(=O)[C@H](CCCNC(=N)N)NC(=O)[C@@H](Cc2cccc3ccccc23)NC(=O)C2CC(OCc3ccccc3)CN2C1=O (stereo partly shown) [Peptide 5] (Ac-[Nle][Dab][ξHyp](Bn)[d1Nal]RW[βAla]; lactam 2-C),0.74 nM,77%,5%,> 10000 nM,32%,11 nM,5 nM,75%,,,,
CCCC[C@H](NC(C)=O)C(=O)N[C@H]1CNC(=O)CNC(=O)[C@H](Cc2c[nH]c3ccccc23)NC(=O)[C@H](CCCNC(=N)N)NC(=O)[C@@H](Cc2cccc3ccccc23)NC(=O)C2CC(OCc3ccccc3)CN2C1=O (stereo partly shown) [Peptide 6] (Ac-[Nle][Dap][ξHyp](Bn)[d1Nal]RWG; lactam 2-C),,,6%,> 10000 nM,36%,87 nM,521 nM,34%,,,,
CCCCCC(=O)N[C@H]1CNC(=O)CNC(=O)[C@H](CCCNC(=N)N)NC(=O)[C@@H](Cc2ccccc2)NC(=O)[C@H](Cc2c[nH]cn2)NC1=O [Peptide 17] (Hexanoyl-[Dap]H[dF]RG; lactam 1-C),> 10000 nM,-0.5%,12%,> 10000 nM,14%,7800 nM,1000 nM,84%,1300 nM,83%,10 nM,94%

# Stronger by EC50 (hMC3r), values ahead:
EC50 (hMC5r),Emax (hMC5r),Emax (hMC3r),EC50 (hMC3r),Emax (hMC4r),EC50 (hMC4r),EC50 (mMC1r [1]),Emax (mMC1r [1]),EC50 (mMC1r [2]),Emax (mMC1r [2]),EC50 (hMC1r),Emax (hMC1r),Compound
> 10000 nM,41%,75%,20 nM,101%,1 nM,230 nM,74%,,,,,CC(=O)N[C@@H](CCCNC(=N)N)C(=O)N[C@H]1CCCNC(=O)CCCNC(=O)[C@H](Cc2c[nH]c3ccccc23)NC(=O)[C@H](CCCNC(=N)N)NC(=O)[C@@H](Cc2ccccc2)NC(=O)[C@H](CC(N)=O)NC1=O [Peptide 8] (Ac-R[Orn]N[dF]RW[GABA]; lactam 2-C)
> 10000 nM,32%,104%,0.5 nM,105%,0.22 nM,0.9 nM,79%,,,,,CC(=O)N[C@@H](CCCNC(=N)N)C(=O)N[C@H]1CCNC(=O)CCCCNC(=O)[C@H](Cc2c[nH]c3ccccc23)NC(=O)[C@H](CCCNC(=N)N)NC(=O)[C@@H](Cc2ccccc2)NC(=O)[C@H](Cc2c[nH]cn2)NC1=O [Peptide 9]
> 10000 nM,13%,98%,7 nM,99%,0.19 nM,2 nM,93%,,,,,CC(=O)N[C@@H](CCCNC(=N)N)C(=O)N[C@H]1CNC(=O)CCCCCNC(=O)[C@H](Cc2c[nH]c3ccccc23)NC(=O)[C@H](CCCNC(=N)N)NC(=O)[C@@H](Cc2ccccc2)NC(=O)[C@H](Cc2c[nH]cn2)NC1=O [Peptide 11]
> 10000 nM,20%,48%,55 nM,116%,2 nM,206 nM,95%,,,,,CC(=O)N[C@@H](CCCNC(=N)N)C(=O)N[C@H]1CNC(=O)CCCCCNC(=O)[C@H](Cc2c[nH]c3ccccc23)NC(=O)[C@H](CCCNC(=N)N)NC(=O)[C@@H](Cc2ccccc2)NC(=O)[C@H](CC(N)=O)NC1=O [Peptide 12] (Ac-R[Dap]N[dF]RW[Ahx]; lactam 2-C)
> 10000 nM,25%,101%,0.4 nM,87%,0.27 nM,1 nM,80%,,,,,CC(=O)N[C@@H](CCCNC(=N)N)C(=O)N[C@H]1CCCNC(=O)CCCNC(=O)[C@H](Cc2c[nH]c3ccccc23)NC(=O)[C@H](CCCNC(=N)N)NC(=O)[C@@H](Cc2ccccc2)NC(=O)[C@H](Cc2c[nH]cn2)NC1=O [Peptide 13]
> 10000 nM,22%,106%,0.2 nM,83%,0.15 nM,0.79 nM,111%,,,,,CC(=O)N[C@@H](CCCNC(=N)N)C(=O)N[C@H]1CCCCNC(=O)CCNC(=O)[C@H](Cc2c[nH]c3ccccc23)NC(=O)[C@H](CCCNC(=N)N)NC(=O)[C@@H](Cc2ccccc2)NC(=O)[C@H](Cc2c[nH]cn2)NC1=O [Peptide 14] (Ac-RKH[dF]RW[βAla]; lactam 2-C)
140 nM,44%,90%,2 nM,94%,0.3 nM,140 nM,102%,,,,,CC(=O)N[C@@H](CCCNC(=N)N)C(=O)N[C@H]1CCCCNC(=O)CCNC(=O)[C@H](Cc2c[nH]c3ccccc23)NC(=O)[C@H](CCCNC(=N)N)NC(=O)[C@@H](Cc2ccccc2)NC(=O)[C@H](CC(N)=O)NC1=O [Peptide 15] (Ac-RKN[dF]RW[βAla]; lactam 2-C)
> 10000 nM,3%,16%,7680 nM,68%,2100 nM,90 nM,99%,180 nM,90%,5 nM,89%,CCCCCC(=O)N[C@H]1CNC(O)CCNC(=O)[C@H](CCCNC(=N)N)NC(=O)[C@@H](Cc2ccccc2)NC(=O)[C@H](Cc2c[nH]cn2)NC1=O (stereo partly shown) [Peptide 18]
